From patent US20200138772A1, “STABILIZED FORMULATIONS OF CANNABINOID COMPOSITIONS” (priority 2018, published 2020)
Where two headings read alike, the source gives them in different places.

Tests used:
[1] = Randomized, double blind, parallel bioavailability study (plasma CBD, THC and metabolites by LCMS); settings: human, oral
Protocol: Dosage was standardized to 10 mg of THC. […] Secondary outcome was a subjective evaluation of drug effects assessed using modified Drug Effects Questionnaire (DEQ-5) for the control product and the experimental product. Relevant experimental descriptions of several study aspects are detailed below.
Administration: A pre-dose plasma (via IV catheter) and a urine sample is collected from the participant before the administration of the emulsions/formulations. […] The bowl in which the product is mixed is rinsed with 100 ml water and the participant consumes the complete amount. After the product mixture is consumed, the participant is provided with an 8 oz glass of water that is then consumed in its entirety within 1-2 minutes.
The samples are also analyzed for HbAlc, CBC, electrolytes (Na, K, Cl, Ca), creatinine, estimated glomerular filtration rate (eGFR), aspartate aminotransferase (AST), alanine aminotransferase (ALT), and bilirubin. Urine samples are also obtained at the following time ranges: 1-4 hrs, 4-8 hrs and 8-12 hrs.
Plasma and urine samples are collected at KGK Science.

[2] = cited from earlier work; for time to achieve peak plasma concentration (tmax): different doses; for half-life / systemic bioavailability: humans

| Compound | Tmax [1] [h] | time to achieve peak plasma concentration (tmax) [2] [h] | half-life ([2]; intravenous injection) [h] | half-life ([2]; oral administration) [h] | half-life ([2]; smoking) [h] | systemic bioavailability ([2]; oral) | maximal plasma concentrations observed as late as ([2]; orally taken, in some cases) [h] | systemic bioavailability ([2]; smoked) |
| --- | --- | --- | --- | --- | --- | --- | --- | --- |
| C=C(C)[C@@H]1CCC(C)=C[C@H]1c1c(O)cc(CCCCC)cc1O [CBD, (−)-Cannabidiol (CBD)] | 0.167 to 1.42 | 1.5 to 4 | 18 to 33 | 48 to 120 | 27 to 35 |  |  |  |
| CCCCCc1cc(O)c2c(c1)OC(C)(C)[C@@H]1CCC(C)=C[C@@H]21 [Δ^9-THC, Δ^9-Tetrahydrocannabinol (Δ^9-THC)] | 0.167 to 1.5 | 1 to 2 |  |  |  | 4-12% | ≤ 6 | 10-27% |
